Columns and labels:
P. aeruginosa PAO1 = assay: Synergy assay with Piperacillin Tazobactam; type: cell-based, Pseudomonas aeruginosa; conditions: PPMO 32 to 0.5 μM; 2 μg/mL PMBN; 18 hours at 37° C.
Description: (§1) A synergy assay was performed with Piperacillin Tazobactam and AcpP PPMO #35 in P. aeruginosa PAO1. 1×10^6 cfu/mL of PAO1 was inoculated into Mueller Hinton II media in an 96-well plate in the presence of 2 μs/mL PMBN. Piperacillin Tazobactam (PT) was serial diluted by half dilutions in the lateral direction from 128 to 0.124 μg/mL. AcpP PPMO #35 was vertically diluted in the same manner from 32 to 0.5 μM. The 96-well plate was then incubated for 18 hours at 37° C.
as §1, with “μg/mL” for “μs/mL”

[1] = system: existing P. aeruginosa PAO1 biofilm; assay: Biofilm reduction in MBEC plate (crystal violet); type: cell-based, Pseudomonas aeruginosa; conditions: at 10, 5, 2.5, and 1 μM; 2 μg/mL PMBN; 48 hour biofilm
Description: P. aeruginosa PAO1 (5×10^5 cfu/mL) was grown in an MBEC plate for 24 hours. At 24 hours, the pegs were moved to a new 96-well plate containing fresh MHII media and either scrambled, RpsJ, or AcpP PPMO at the indicated concentrations. All wells containing PPMOs (including Scrambled) contained 2 μg/mL of PMBN. The pegs were again moved to new plates with or without PPMOs at 32 and 40 hours. Pegs were processed for crystal violet or visualized with microscopy at 48 hours. […] FIGS. 7B-7D: Spinning Disk confocal microscopy images of 48 hour biofilm treated with (FIG. 7B) 10 μM Scr PPMO #42, (FIG. 7C) 2.5 μM AcpP PPMO #35, (FIG. 7D) 10 μM AcpP PPMO #35. Green channel is PAO1 GFP; Red channel is biofilm stained with 200 μg/mL of Concanavalin A, Alexafluor 647 conjugate.
Pseudomonas aeruginosa Biofilm Reduction in MBEC Plate Protocol
• 1. 10 mL of MH is inoculated with a single colony and incubated at 37° C. and ˜250 rpm for about 5 hours. • 2. The sample is centrifuged for 10 minutes at ˜4000 rpm at 4° C., the supernatant decanted and the pellet resuspended in 10 mL of 150 mM NaCl or PBS. This step is repeated to wash the pellet 3 times. • 3. […] The OD600 of the sample is taken and cfu/mL is calculated. […]
1. […] The final OD570 of the 10× dilution of solution should be approximately 0.500 absorbance. […]
2. OD reading: The OD570 for the 96-well plate from step 1e is determined. […]

PPMO #35: AcpP PMO CTCATACCTTG, 5′ (RXR)4XB CPP, 3′ H
MIC of Piperacillin Tazobactam in combination with PPMO (P. aeruginosa PAO1): decreasing MIC values as the PPMO concentration increased | reduction of existing biofilm (crystal violet) [1]: statistically significant reduction of biofilm

From patent US11293024B2, “Antisense antibacterial compounds and methods” (priority 2014, dated 2022)
